# Measured values taken from patent US8178506B2, “Oligomeric compounds and compositions for use in modulation of small non-coding RNAs” (Regulus Therapeutics Inc., priority 2003, dated 2012).
# In the oligonucleotide strings, read from the 5' end, every base follows the letter of its sugar. An asterisk marks phosphorothioate; unmarked linkages are phosphodiester. Other units and linkages are bracketed, terminal groups are in braces. A string of capitals states the bases alone. e = 2'-O-(2-methoxyethyl) (MOE); [5mC] = 5-methylcytosine; d = 2'-deoxy (DNA)
# Test system: T47D cells
# Assay: Caspase-3 activity assay (apoptosis) in T47D cells
# Settings: T47D cells, 200 nM, 48 hours, relative to untreated control
row,Substance,Fold Increase over UTC (caspase activity)
1,328415 (antisense eT*eG*e[5mC]*e[5mC]*eA*dT*dG*dA*dG*dA*dT*dT*d[5mC]*dA*dA*e[5mC]*eA*eG*eT*e[5mC]) [compound 328415],1.1

# Test system: mir-21 miRNA
# Assay: pGL3-mir-21 sensor luciferase assay in HeLa cells
# Format: cell-based, human
# Settings: Table 44, pGL3-mir-21 sensor-expressing HeLa cells, 10 nM
# From the text: In order to assess the ability of miRNAs to bind predicted miRNA binding sites and regulate the expression of the luciferase reporter, in some embodiments, expression systems based on the pGL3-Control (Promega Corp., Madison Wis.) reporter vector and comprising either a mir-15a, mir-21, or a mir-23b miRNA binding site were developed and used in transient transfections of HeLa cells to determine whether the endogenous mir-15a, mir-21, or mir-23b miRNAs, respectively, could repress luciferase reporter gene expression.
# The pGL3-mir-21 sensor plasmid was created by cloning the sequence ([…]; SEQ ID NO: 335), representing a sequence complementary to the mir-21 miRNA, into the Xba site of the pGL3-Control plasmid, placing the potential miRNA-binding site in the 3′UTR of the luciferase reporter. This reporter plasmid was used to transfect HeLa cells and it was observed that the endogenous mir-21 miRNA was able to inhibit luciferase expression from the pGL3-mir-21 sensor plasmid. Thus, to further evaluate the ability of the mir-21 miRNA to bind this target site encoded by the pGL3-mir-21 sensor plasmid, and to assess the ability of oligomeric compounds to interfere with mir-21-mediated silencing, pGL3-mir-21 sensor-expressing HeLa cells were treated with varying concentrations (10 nM or 50 nM) of the following oligomeric compounds: ISIS Number 327917 (SEQ ID NO: 335), a phosphorothioate uniform 2′-MOE oligomeric compound; ISIS Number 338697 ([…]; herein incorporated as SEQ ID NO: 524), a uniform 2′-MOE oligomeric compound targeting the mir-21 pri-miRNA molecule; and ISIS Number 328415 (SEQ ID NO: 524), a 2′-MOE 5-10-5 gapmer oligomeric compound targeting the mir-21 pri-miRNA. The uniform 2′-MOE phosphorothioate oligomeric compound ISIS Number 327901 (SEQ ID NO: 319) targeting an unrelated miRNA (mir-143) was used as a negative control. The data are the average of three trials and are presented in Table 44 as percent untreated control (luciferase plasmid only, not treated with oligomeric compound) luciferase expression, normalized to pRL-CMV levels.
# In one embodiment, the oligomeric compounds ISIS Number 327917 (SEQ ID NO: 335), the phosphorothioate uniform 2′-MOE targeting mature mir-21; ISIS Number 358768 (SEQ ID NO: 918), the uniform 2′-MOE targeting the mir-21 pri-miRNA which stimulated the largest increase in pri-miRNA expression levels by real time quantitative RT-PCR; and ISIS Number 345382 (SEQ ID NO: 335), the 5-10-7 phosphorothioate 2′-MOE gapmer targeting mature mir-21 were selected for dose response studies in HeLa cells using the luciferase reporter system described in Example 27. ISIS Number 342683 (SEQ ID NO: 790), representing the scrambled nucleotide sequence of an unrelated PTP1B antisense oligonucleotide, was used as a negative control. HeLa cells expressing the pGL3-mir-21 sensor plasmid (described in Example 27) were treated with 1.9, 5.5, 16.7, and 50 nM of these oligomeric compounds, to assess the ability of oligomeric compounds to interfere with endogenous mir-21-mediated silencing of the pGL3-mir-21 sensor plasmid. The data are presented in Table 50 as percent untreated control (luciferase plasmid only, not treated with oligomeric compound) luciferase expression, normalized to pRL-CMV levels.
row,Substance,luciferase expression % UTC [% UTC]
1,"338697 (antisense TGCCATGAGATTCAACAGTC; all 2'-MOE, all phosphorothioate, methylation of C not given here) [compound 338697]",87.0
2,328415 (antisense eT*eG*e[5mC]*e[5mC]*eA*dT*dG*dA*dG*dA*dT*dT*d[5mC]*dA*dA*e[5mC]*eA*eG*eT*e[5mC]) [compound 328415],66.0

# Same assay, conditions: Table 44, pGL3-mir-21 sensor-expressing HeLa cells, 50 nM
row,Substance,luciferase expression % UTC [% UTC]
1,"338697 (antisense TGCCATGAGATTCAACAGTC; all 2'-MOE, all phosphorothioate, methylation of C not given here) [compound 338697]",84.8
2,328415 (antisense eT*eG*e[5mC]*e[5mC]*eA*dT*dG*dA*dG*dA*dT*dT*d[5mC]*dA*dA*e[5mC]*eA*eG*eT*e[5mC]) [compound 328415],104.4

# Test system: mir-15a pri-miRNA
# Assay: mir-15a pri-miRNA expression in HepG2 cells (real-time RT-PCR)
# Format: cell-based, human
# Settings: HepG2, 100 nM
# Experimental: Using the real-time RT-PCR methods described in Example 19, the expression levels of the mir-15a pri-miRNA were compared in HepG2 cells treated with a nested series of chimeric gapmer oligomeric compounds, targeting and spanning the entire length of the mir-15a pri-miRNA; these compounds are shown in Table 45, below. […] All cytidine residues are 5-methylcytidines. Using the transfection methods described herein, HepG2 cells were treated with 100 nM of each of these gapmer oligomeric compounds. Total RNA was isolated from HepG2 cells by lysing cells in 1 mL TRIZOL™ (Invitrogen) using the manufacturer's recommended protocols. Real-time RT-PCR analysis was performed using a primer/probe set specific for the mir-15a pri-miRNA molecule to assess the effects of these compounds on expression of the mir-15a pri-miRNA molecule. ISIS 339317 ([…]; SEQ ID NO.: 885) was used as the forward primer, ISIS 339318 (TGGCCTGCACCTTTTCAAA; SEQ ID NO.: 886) was used as the reverse primer, and ISIS 339319 ([…]; SEQ ID NO.: 887) was used as the probe. Total RNA was quantified using RiboGreen™ RNA quantification reagent (Molecular Probes, Inc. Eugene, Oreg.), expression levels observed for each target are normalized to 5.8S rRNA, and values are expressed relative to the untreated control. Inhibition of expression of the mir15a pri-miRNA by these gapmer oligomeric compounds is expressed as a percentage of RNA levels in untreated control cells.
row,Substance,expression of the mir-15a pri-miRNA molecule
1,ISIS 347968: 5-10-5 2′-MOE gapmer PS; targets mir-15a pri-miRNA (antisense e[5mC]*e[5mC]*eT*eG*e[5mC]*dA*d[5mC]*d[5mC]*dT*dT*dT*dT*d[5mC]*dA*dA*eA*eA*eT*e[5mC]*e[5mC]),significant inhibition of expression of the mir-15a pri-miRNA molecule
2,ISIS 347967: 5-10-5 2′-MOE gapmer PS; targets mir-15a pri-miRNA (antisense eG*e[5mC]*eA*e[5mC]*e[5mC]*dT*dT*dT*dT*d[5mC]*dA*dA*dA*dA*dT*e[5mC]*e[5mC]*eA*e[5mC]*eA),stimulate an increase in expression levels of the mir-15a pri-miRNA
3,ISIS 347977: 5-10-5 2′-MOE gapmer PS; targets mir-15a pri-miRNA (antisense eT*eT*eG*eT*eA*dT*dT*dT*dT*dT*dG*dA*dG*dG*d[5mC]*eA*eG*e[5mC]*eA*e[5mC]),stimulate an increase in expression levels of the mir-15a pri-miRNA
4,ISIS 347980: 5-10-5 2′-MOE gapmer PS; targets mir-15a pri-miRNA (antisense eA*eG*eA*eT*e[5mC]*dA*dG*dA*dT*d[5mC]*d[5mC]*dT*dT*dG*dT*eA*eT*eT*eT*eT),significant inhibition of expression of the mir-15a pri-miRNA molecule
5,ISIS 347975: 5-10-5 2′-MOE gapmer PS; targets mir-15a pri-miRNA (antisense eT*eT*eT*eT*eG*dA*dG*dG*d[5mC]*dA*dG*d[5mC]*dA*d[5mC]*dA*eA*eT*eA*eT*eG),significant inhibition of expression of the mir-15a pri-miRNA molecule
6,ISIS 347983: 5-10-5 2′-MOE gapmer PS; targets mir-15a pri-miRNA (antisense eA*eA*eA*eT*eA*dT*dA*dT*dT*dT*dT*d[5mC]*dT*dT*d[5mC]*eA*eG*eA*eA*eG),significant inhibition of expression of the mir-15a pri-miRNA molecule

# Same assay, conditions: HepG2 cells, 100 nM, real-time RT-PCR
row,Substance,Expression of mir-15a pri-miRNA (% UTC)
1,347968 (e[5mC]*e[5mC]*eT*eG*e[5mC]*dA*d[5mC]*d[5mC]*dT*dT*dT*dT*d[5mC]*dA*dA*eA*eA*eT*e[5mC]*e[5mC]; antisense) [compound 347968],8.4
2,347976 (eT*eA*eT*eT*eT*dT*dT*dG*dA*dG*dG*d[5mC]*dA*dG*d[5mC]*eA*e[5mC]*eA*eA*eT; antisense) [compound 347976],73.0
3,347983 (eA*eA*eA*eT*eA*dT*dA*dT*dT*dT*dT*d[5mC]*dT*dT*d[5mC]*eA*eG*eA*eA*eG; antisense) [compound 347983],13.0
4,347978 (eT*e[5mC]*e[5mC]*eT*eT*dG*dT*dA*dT*dT*dT*dT*dT*dG*dA*eG*eG*e[5mC]*eA*eG; antisense) [compound 347978],51.1
5,347977 (eT*eT*eG*eT*eA*dT*dT*dT*dT*dT*dG*dA*dG*dG*d[5mC]*eA*eG*e[5mC]*eA*e[5mC]) [compound 347977],111.3
6,347973 (eG*eG*e[5mC]*eA*eG*d[5mC]*dA*d[5mC]*dA*dA*dT*dA*dT*dG*dG*e[5mC]*e[5mC]*eT*eG*e[5mC]) [compound 347973],143.3
7,347979 (eA*eG*eA*eT*e[5mC]*d[5mC]*dT*dT*dG*dT*dA*dT*dT*dT*dT*eT*eG*eA*eG*eG; antisense) [compound 347979],74.9
8,347967 (eG*e[5mC]*eA*e[5mC]*e[5mC]*dT*dT*dT*dT*d[5mC]*dA*dA*dA*dA*dT*e[5mC]*e[5mC]*eA*e[5mC]*eA) [compound 347967],152.3
9,347972 (eA*eG*e[5mC]*eA*e[5mC]*dA*dA*dT*dA*dT*dG*dG*d[5mC]*d[5mC]*dT*eG*e[5mC]*eA*e[5mC]*e[5mC]; antisense) [compound 347972],98.6
10,347971 (eA*e[5mC]*eA*eA*eT*dA*dT*dG*dG*d[5mC]*d[5mC]*dT*dG*d[5mC]*dA*e[5mC]*e[5mC]*eT*eT*eT; antisense) [compound 347971],92.8
11,347982 (eT*eT*e[5mC]*eA*eG*dA*dA*dG*dA*dT*d[5mC]*dA*dG*dA*dT*e[5mC]*e[5mC]*eT*eT*eG; antisense) [compound 347982],82.2
